Assays:
rat TRPA1 gene = assay: Suppression of rat TRPA1 gene expression by siRNA in RIN14B cells (real time PCR); type: cell-based; details: siRNA 10 nM, 2 days
Experimental: The expression of the TRPA1 gene in rat tissues, a rat EC cell fraction and RIN14B cells was analyzed by real time PCR using a sequence detector (PRISM7900; Applied Biosystems). With the first strand cDNA derived from rat tissue, rat EC cells or RIN14B cells, obtained in the aforementioned Example, as the template, using a fluorescent reagent (SYBR Green PCR Core Reagents Kit; Applied Biosystems), PCR was performed. The aforementioned PCR was performed using an oligonucleotide consisting of the base sequence shown by SEQ ID NO:13 as a sense primer, and an oligonucleotide consisting of the base sequence shown by SEQ ID NO:14 as an antisense primer; first, thermal denaturation was performed at 95° C. (10 minutes), after which a cycle consisting of heat treatment at 95° C. (15 seconds)/59° C. (1 minute) was repeated 45 times. Each primer is a sequence specific for a gene consisting of the base sequence shown by SEQ ID NO:5. […]
RIN14B cells were sown to a 60 mm Petri dish at 6×10^5 cells and cultured for 1 day. After various sequences of siRNA for rat TRPA1 (10 nM), designed using the siRNA design system siDirect (RNAi), were introduced using a transformation reagent (LIPOFECTAMINE2000; Invitrogen Japan K.K.), the RIN14B cells were further cultured for 2 days, and the expression level of the rat TRPA1 gene was measured. […]

RIN14B cells [1] = assay: Channel activity in RIN14B cells using calcium-sensitive fluorescent reagent (FLIPR); type: cell-based, rat; details: siRNA-introduced RIN14B; allyl isothiocyanate 300 μM
Experimental: RIN14B cells (5×10^4 cells), wherein the expression of TRPA1 was confirmed in Example 10, were incubated in the presence of a calcium-sensitive fluorescent reagent (Fluo3-AM; DOJINDO) at 37° C. for 1 hour to thereby incorporate the calcium-sensitive fluorescent reagent in the cells, after which the cells were washed with physiological saline to remove the calcium-sensitive fluorescent reagent that had not been incorporated in the cells. To the cells obtained, physiological saline supplemented with allyl isothiocyanate, cinnamic aldehyde, or acrolein was added; the fluorescence emitted by the cells was measured over time. The above-described measurements were performed using an automated fluorescence detection apparatus (FLIPR; Molecular Device). […] Ruthenium Red was added concurrently and a measurement was performed to determine whether or not calcium inflow in the cells was be inhibited.

RIN14B cells [2] = assay: Serotonin secretion from RIN14B cells (immunoassay); type: cell-based, rat; details: siRNA-introduced RIN14B; listed as #971 siRNA
Experimental: After RIN14B cells in culture in a Petri dish were detached using a PBS containing 1 mM EDTA, they were sown to a 96-well plate and cultured for 2 days. The medium used was RPMI1640 (Invitrogen Japan K.K.) supplemented with 10% fetal bovine serum (ICN), 100 U/ml penicillin, and 100 μg/ml streptomycin. After the cells were once washed with Hanks' Balanced Salt Solutions (HBSS, Invitrogen) supplemented with 0.1% BSA and 10 μM fluoxetine (TOCRIS), each TRPA1 activator, previously diluted/prepared with the above-described HBSS, was added, and the RIN14B cells were cultured at 37° C. in the presence of 5% CO2 for 20 minutes. After the cultivation, the cell supernatant was recovered, and stored under freezing. The serotonin content in the supernatant was measured using a commercially available serotonin immunoassay kit (Beckman).

With “#971: a rat TRPA1-specific siRNA (sense strand SEQ ID NO:15, antisense strand SEQ ID NO:16) (sense CUGGCAGACUACCUAAUUUCA; antisense AAAUUAGGUAGUCUGCCAGGU; listed as RNA, chemistry not given here)” the “expression level of the rat TRPA1 gene” value (rat TRPA1 gene) was “a reduction in the expression level of the rat TRPA1 was observed”, the “suppression of intracellular calcium inflow activity of allyl isothiocyanate” value (RIN14B cells [1]) was 67.3% and the “serotonin secretion increasing activity of cinnamic aldehyde in siRNA-introduced RIN14B” value (RIN14B cells [2]) was “suppressed cinnamic aldehyde-induced serotonin release”.

Reference: US8034574B2, “Screening method for prokinetic agent” (Astellas Pharma Inc., priority 2006, dated 2011)
